Data as given in patent US20180353445A1, “METHODS AND COMPOSITIONS RELATING TO PROTEASOME INHIBITOR RESISTANCE” (Whitehead Institute for Biomedical Research, priority 2017, published 2018).
“Also recorded” adds a separate entry of the source.

How the values were obtained:
[1] = test system: MCF7, HEK293 and T47D cells; experiment: Viability of cells grown in glucose (glycolytic) vs galactose (Hi-OXPHOS); type: cell-based, human; details: screen
Protocol: FIGS. 40A-40D: Cancer cell metabolism alters sensitivity to elesclomol.
FIGS. 41A-41B: Cancer cell metabolism alters sensitivity to elesclomol.
FIGS. 51A-51D: Elesclomol preferentially targets cells in the Hi-OXPHOS state. […] The relative cell growth (color coded) was analyzed 72 hours post compound addition. Plotted are the mean SD of at least three replicas and the calculated EC50s (FIGS. 51B-51C). […] Reactive groups are indicated with a colored circle.
FIGS. 57A-57C: Elesclomol preferentially targets cells in the Hi-OXPHOS state. […] Analogs named compound 1-6. […] Plotted are the mean SD of at least three replicas and the calculated EC50s (FIG. 57A and FIG. 57C).

T47D cells = experiment: The glucose/galactose drug screen; type: cell-based, human; details: 10 mM Glucose or Galactose, Selleck anti cancer and natural product libraries
Protocol: We conducted a second set of drug screens to identify unique sensitivities conferred by the Hi-OXPHOS state using parental T47D breast cancer cells (without 19S subunit suppression). For this screen, we used the NPC and CDL libraries as they contained the greatest number of hits in the Lo19S screen. We tested over 800 compounds at multiple concentrations and measured their effects on relative cell growth/viability when cells were grown under aerobic glycolysis conditions (glucose-supplemented medium) or forced mitochondrial respiration conditions (galactose-supplemented medium).
The glucose/galactose drug screen—T47D cells growing in regular media were collected counted and after centrifugation cells were re-suspended in RPM1 media without glucose containing 10% dialyzed serum with the addition of either 10 mM glucose or 10 mM galactose, Cells were then plated at 1000 cells/well in 384-well opaque, white assay plates (Coming, N.Y.), 50 uL per well, and incubated overnight at 37°C./5% CO2. Application of the drug libraries and cell viability was executed as described above for the Lo19S drug screen.

FDX1 = target: T1, FDX1 (Homo sapiens, UniProt P10109); experiment: In vitro Fe-S cluster assembly with reduced FDX1 (absorbance at 456 nm); type: biochemical; details: x5 concentration relative to enzyme
T1 construct: made in house
T1 sequence (P10109 62-184): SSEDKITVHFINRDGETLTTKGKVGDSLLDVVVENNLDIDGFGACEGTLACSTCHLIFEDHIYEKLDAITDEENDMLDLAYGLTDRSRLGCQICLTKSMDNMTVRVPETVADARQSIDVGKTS
Source text: FIGS. 47A-47C: Inhibition of Fe—S formation by elesclomol and variants (in-vitro). […] Note: “x(number) concentration” means that the indicated compound was present at 5 times the concentration of the enzyme.
(FIG. 53A) provides a schematic describing mitochondrial Fe—S cluster biosynthesis. The mitochondrial ISC (iron-sulfur cluster) core complex contains the scaffold protein ISCU and cysteine desulfurase (ACP-ISD11-NFS1)2. The latter catalyzes the conversion of cysteine to alanine and generates S° for iron sulfur cluster assembly. S° is reduced by FDX1. A [2Fe-2S] cluster is subsequently formed on ISCU. […] In vitro Fe—S cluster assembly was carried out with reduced. FDX1 as the reducing agent in the presence or absence of either 5× (green) or 10× (yellow) elesclomol (both relative to FDX1). Fe—S cluster formation was monitored by following the increase of absorbance at 456 nm. […] The red triangle denotes an NMR peak that became severely broadened. […] The [2Fe-2S] cluster in FDX1 is indicated by spheres.
The in vitro Fe—S cluster assembly was carried out with reduced FDX1 as the reducing agent and detected by following the increase of absorbance at 456 tun following the addition of either of 5× (green) or 10× (yellow, both relative to FDX1) compound-1. […] Fe—S formation was monitored by following the increase of absorbance at 456 nm. […] Cysteine desulfurase activity assay carried out with the indicated concentrations of elesclomol.

Compound	targeting of glycolytic cancer cells [1]	relative viability change of cells grown in glucose versus galactose (T47D cells)	in vitro formation of Fe-S clusters mediated by FDX1 (FDX1)
O=C(/C=C/c1cccnc1)NCCCCC1CCN(C(=O)c2ccccc2)CC1 [APO866]	preferentially targets glycolytic cancer cells	predominantly more sensitive; also recorded: strongest hits in this screen	–
CN(NC(=O)CC(=O)NN(C)C(=S)c1ccccc1)C(=S)c1ccccc1 [SAT-4783]	–	–	inhibition
